Legend:
ICR mice = experiment: acetic acid writhing pain model in mice; type: in vivo; settings: for frequency of writhing response within 30 min: acetic acid 1 h after administration
Protocol: Male ICR mice, weighed 22-25 g, were fasted but allowed to drink water freely for 2 h before administration. All ICR mice were weighed and grouped randomly, and the number of animals in each group was greater than 10. […] […] The drug was administrated intragastrically based on the weight of mice. 1.5% acetic acid solution (0.1 ml/10 g) was injected intraperitoneally 1 hour after administration, and the frequency of visceral pain in each group of mice within 30 min was observed. When concave abdomen, stretched trunk and hind paw, and high buttocks appeared, one number point was recorded. Finally, the number of appearance of the above phenomenon was counted within 30 minutes.

TRPA1 = target: T1, TRPA1 (Mus musculus, UniProt Q8BLA8); experiment: IonWorks Barracuda (IWB) automated patch clamp detection of TRPA1 inhibitory activity; type: cell-based
T1 construct: expressed in transfected cells
T1 sequence (Q8BLA8 whole entry): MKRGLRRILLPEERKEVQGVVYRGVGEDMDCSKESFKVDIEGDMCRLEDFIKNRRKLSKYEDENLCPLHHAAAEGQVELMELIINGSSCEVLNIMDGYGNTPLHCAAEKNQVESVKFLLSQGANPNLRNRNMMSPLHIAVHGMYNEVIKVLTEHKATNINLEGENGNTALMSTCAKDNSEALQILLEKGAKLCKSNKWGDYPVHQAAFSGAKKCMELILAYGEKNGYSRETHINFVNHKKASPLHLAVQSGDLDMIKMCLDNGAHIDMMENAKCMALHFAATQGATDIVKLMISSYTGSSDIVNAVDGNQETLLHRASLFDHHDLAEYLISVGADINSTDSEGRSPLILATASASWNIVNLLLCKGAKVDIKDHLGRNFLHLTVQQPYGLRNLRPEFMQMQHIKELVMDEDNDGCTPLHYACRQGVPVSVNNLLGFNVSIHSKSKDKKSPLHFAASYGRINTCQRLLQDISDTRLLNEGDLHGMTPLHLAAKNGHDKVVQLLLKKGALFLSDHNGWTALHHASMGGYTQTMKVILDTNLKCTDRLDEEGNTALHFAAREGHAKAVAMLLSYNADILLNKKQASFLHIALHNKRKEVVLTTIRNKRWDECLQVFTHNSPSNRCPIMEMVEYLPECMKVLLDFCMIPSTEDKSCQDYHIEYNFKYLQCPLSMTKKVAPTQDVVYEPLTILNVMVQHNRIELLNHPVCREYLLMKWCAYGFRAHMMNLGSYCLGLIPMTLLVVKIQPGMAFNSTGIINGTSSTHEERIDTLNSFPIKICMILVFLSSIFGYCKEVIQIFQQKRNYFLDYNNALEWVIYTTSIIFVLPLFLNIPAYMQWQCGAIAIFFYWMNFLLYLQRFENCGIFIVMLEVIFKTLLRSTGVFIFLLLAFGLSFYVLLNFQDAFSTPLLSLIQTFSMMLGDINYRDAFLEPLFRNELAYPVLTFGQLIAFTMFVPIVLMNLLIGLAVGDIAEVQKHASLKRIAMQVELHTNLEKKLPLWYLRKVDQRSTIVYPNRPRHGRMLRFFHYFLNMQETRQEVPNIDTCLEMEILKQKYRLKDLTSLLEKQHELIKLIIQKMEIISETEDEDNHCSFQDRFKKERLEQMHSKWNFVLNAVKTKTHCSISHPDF
Protocol: IonWorks Barracuda (IWB) automated patch clamp detection was used as test method: HEK293 cells stably expressing TRPA1 were placed in the T175 culture flask with DMEM medium containing 15 μg/mL Blasticidin S HCl, 200 μg/mL Hygromycin B and 10% FBS, and cultured in an incubator in 5% CO2 at 37° C. When the cell density reached about 80%, the culture medium was removed, the residue was rinsed once with phosphate buffered saline (PBS) without calcium and magnesium. 3 mL of Trypsin was added to digest for 2 min, 7 mL of culture medium was added to terminate the digestion. The cells were collected to 15 mL centrifuge tube and centrifuged at 800 rpm for 3 min. After the supernatant was removed, the cells were added to appropriate volume of extracellular fluid for re-suspending, and the cell density was controlled at 2-3×10^6/mL for IWB experiment. The formulation of extracellular fluid (in mM) was 140 NaCl, 5 KCl, 1 MgCl2, 10 HEPES, 0.5 EGTA, 10 Glucose (pH 7.4); the formulation of intracellular fluid (in mM) was 140 CsCl, 10 HEPES, 5 EGTA, 0.1 CaCl2), 1 MgCl2 (pH 7.2). 28 mg/mL of amphotericin B was freshly prepared with DMSO on the day of experiment, and then final concentration of 0.1 mg/mL of that was prepared with intracellular fluid.
Population patch clamp (PPC) plate was used in IWB experiment. The entire detection process was automatically carried out by the instrument. […]
The record of data and the export of current amplitude measurement were carried out by IWB software (version 2.5.3, Molecular Devices Corporation. Union City, CA). No statistics was recorded for wells with sealing impedance lower than 20 MΩ. […] TRPA1 current amplitude was measured at ±100 mV. […] The dose-effect curve of compounds and IC50 were fitted and calculated by GraphPad Prism 5.02 (GraphPad Software, San Diego, CA).

mice = experiment: ICS model in mice (fibromyalgia), mechanical hyperalgesia test; type: in vivo; settings: 10 mg/kg oral
Protocol: Male C57BUJ6 mice weighing 18-22 g at the beginning of experiment were selected. Each cage had 4 mice which were allowed to feed and drink water freely. Each experimental group had 12 mice, and the experimental mice were labeled by tail labeling method.
Day 0: At 4:30 pm, the mice were put in a plexiglass box with stainless steel mesh, and then the plexiglass box was put into a cold storage (4±2° C.) overnight. The mice were allowed to feed freely and agar was used to replace water.
Day 1: At 10:00 am, the mice were delivered to room temperature (24±2° C.) environment for 30 min, and then the mice were delivered to the cold storage for 30 min. The above steps were repeated until 4:30 pm, and the mice were put into the cold storage overnight.
The compounds were administered orally according to the schedule of experiment, and the dosage was 10 mg/kg.
On the fourth day after modeling, the pre-administration mechanical hyperalgesia test was performed on the animals. Animals with PWT value greater than 0.5 g were excluded and were not used for experiments. On the fifth day after modeling, the animals were tested for mechanical hyperalgesia test at 0.5 h, 1 h, and 2 h after the administration of compounds.
The mice were individually placed in a plexiglass box with a grid on the bottom of the box to ensure that the mice paw could be tested. The mice were allowed to adapt for 15 min before the test. After the adaptation was completed, the test fiber was used to test at the center of the left hind paw of mice. The test fiber comprised 8 test strengths: 2.36(0.02 g), 2.44(0.04 g), 2.83(0.07 g), 3.22(0.16 g), 3.61(0.4 g), 3.84(0.6 g), 4.08(1 g), and 4.17(1.4 g). During the test, the test fiber was pressed vertically against the skin and forced to bend for 6-8 s with a 5 s interval between each test. During the test, rapid withdrawal of animal paw was recorded as pain response. When the test fiber was removed from animal skin, the withdrawal of animal paw was also recorded as pain response. If animal moved or walked, the pain response was not recorded, and the test was repeated. In the test. 3.22(0.16 g) was used firstly. […] The maximum strength of tested fiber was 4.17(1.4 g).
Mechanical hyperalgesia was calculated by using the following formula: 50% response threshold (g)=(10^(Xf+k))/10,000; • Xf=the final test fiber value used in the test; • k=table value (Chaplan et al., 1994, page 62); • =mean difference 5. Data Collection and Analysis

C57 mice = experiment: hot plate pain model in mice; type: in vivo; settings: 10 mg/kg intraperitoneal, hot plate 55° C.
Protocol: SPF-grade C57 male mice were placed at hot plate with constant 55±0.1° C. […] If the pain reaction of mice was observed, the mice were taken out immediately to prevent mice from scalding. […] Appropriate amount of test compounds were added into required volume of physiological saline and fully suspended, and the concentration of the drug compound was prepared as 1 mg/ml. The standard volume of administration to mice was 10 ml/kg (or 0.1 ml/10 g). The administration mode was intraperitoneal administration. […] The administration volume was 10 ml/kg. […] Hot plate observation indicator is the time latency of mice on the hot plate at 55±0.1° C. Measurement and recording were conducted at 3 h before administration and 15 min, 30 min, and 60 min after administration. Maximum possible effect (MPE) % was used to evaluate analgesic effect of each compound, i.e., MPE %=[(Post drug latency-baseline latency)/(30-baseline latency)]×100. MPE % at different time points was recorded. The higher the value of MPE % was, the stronger the analgesic effect of the compound was.

| SMILES | frequency of writhing response within 30 min (ICR mice; 10 mg/kg intragastric) [times] | frequency of writhing response within 30 min (ICR mice; 20 mg/kg intragastric) [times] | IC50 (TRPA1; HEK293 cells stably expressing TRPA1, AITC-induced current) [µM] | PWT(g) Mean ± SD (mice; 0.5 h after administration) [g] | PWT(g) Mean ± SD (mice; 1 h after administration) [g] | PWT(g) Mean ± SD (mice; 2 h after administration) [g] | frequency of writhing response within 30 min (ICR mice; 5 mg/kg intragastric) [times] | half effective dose (EDso) (ICR mice; acetic acid writhing, intragastric) | analgesic activity compared with the positive controls gabapentin and duloxetine (C57 mice) | activity ratio, IC50 of compound C1/IC50 of compound IC-10 (TRPA1) |
| --- | --- | --- | --- | --- | --- | --- | --- | --- | --- | --- |
| CNCC[C@H](Oc1cccc2ccccc12)c1cccs1 [Duloxetine (S configuration), Duloxetine, reference compound] | 27 | 21 | 10 to 20 | 0.416 ± 0.140 | 0.648 ± 0.155 | 0.530 ± 0.235 |  |  |  |  |
| CNCC[C@H](Oc1cccc2ccoc12)c1cccs1 [IC-1, (S)-3-(Benzofuran-7-yloxy)-N-methyl-3-(thiophen-2-yl)propan-1-amine] | 17 |  |  | 0.482 ± 0.199 | 0.773 ± 0.261 | 0.607 ± 0.160 | 20 | less than 5 mg/kg | stronger than those of gabapentin and duloxetine |  |
| CNCC[C@H](Oc1cccc2c1CCC2)c1cccs1 [IC-10] |  |  |  |  |  |  |  |  | stronger than those of gabapentin and duloxetine | about 2.5 times |
